Data set [1] relates to human cell lines (WM164, WM1366, D24, HaCaT, FB). Put plainly: MTT and CV cytotoxicity, statements over all tested cell lines. The format is cell-based. As to conditions: for Irritancy ranking: rank by MTT and CV IC50 over all cell lines, 1 = most cytotoxic. On the procedure: (§1) Cells were seeded into the 96-well cell culture plates in 100 μl of complete culture medium at the initial density of 2x10^4 (cells/ml). Cells were incubated under 5 % CO2 at 37 °C for 24 hours for adhering to the wells and medium was then replaced with 100 μl of fresh medium containing excipient solution at the required final concentration. Each concentration was tested in minimum of 5 replicates and control cells were exposed to the culture medium only.
(§2) After cell incubation for 24 h, the excipient-containing medium was removed, and 100 μl of MTT in PBS (5 mg/ml) diluted 1:10 in medium was then added in the dark. Plates were further incubated for 2-3 h, after which time the medium was removed and the purple formazan product was dissolved by adding 200 μl of DMSO to each well. Plates were then placed in a shaker for 5 min at room temperature and the absorbance of the resulting solutions was measured at 570 nm using a microplate reader (Multiskan™ FC Microplate Photometer). The effect of each treatment was calculated as the percentage of tetrazolium salt reduction by viable cells against the negative control (cells treated with culture medium only).
(§3) Fixed cells were stained with crystal violet dye solution to screen cell viability under treatment conditions. Cells are fixed by 4 % (v/v) paraformaldehyde in PBS for 10 minutes. Crystal violet assay of 0.05 % (v/v) is prepared by 1:4 dilution of the crystal violet stock solution (v/v) in 4 % (v/v) paraformaldehyde. The fixed cells were washed twice with PBS and covered with 250 µl crystal violet working solution. The plates were placed on a bench rocker with medium frequency (20 oscillations per minute) at room temperature for 20 minutes. The plates were emptied and washed under indirect stream of tap water for three times and inverted on filter paper. The plates were taped gently on the paper to remove any remaining liquid and air dried with no lid for minimum of 2 hr at room temperature. After the plates were photographed, blue dye was dissolved in DMSO and the optical density of each well was measured at 570 nm (OD570) with a plate reader (Multiskan™ FC Microplate Photometer). The effect of each treatment was calculated as the percentage of crystal viable staining of surviving attached cells, against the negative control (cells treated with culture medium only).
(§4) To assess the excipients' cytotoxicity, the dose-response effect of each excipient was measured against the cell lines. The cytotoxicity value for each concentration of the excipients was expressed as percentage of viability against the untreated control wells (the optical density of untreated cells was set at 100 % viability) to construct dose-response curves.
The cytotoxicity of the excipients was expressed in terms of an IC50 values (concentration causing 50 % death of the cell population) (Goldberg and Frazier, 1989[37]). […] All IC50 values were expressed as µg/ml. The percentage viability was calculated as follows: […]

Data set [2] has as its system WM1366 human melanoma cells. The data set can be described thus: MTT cell viability assay. The format is cell-based. Conditions: 24 h exposure. On the procedure:
as §1, §2, §4
(§5) All IC50 values were expressed as µg/ml. The percentage viability was calculated as follows: […]
For orientation: Tetrazolium dyes change colour on reduction, which living cells bring about.

In data set [3] the test system is WM164 human melanoma cells. The data set can be described thus: MTT cell viability assay. It counts as cell-based. As to conditions: 24 h exposure. On the procedure: as §1, §2, §4, §5
In data set [4] the test system is D24 human melanoma cells. Put plainly: MTT cell viability assay. The format is cell-based. As to conditions: 24 h exposure. On the procedure:
as §1, §2, §4, §5

For data set [5], the system named is HaCaT human keratinocytes. Put plainly: MTT cell viability assay. It counts as cell-based. As to conditions: 24 h exposure. On the procedure:
as §1, §2, §4, §5

The subject of data set [6] is primary skin fibroblasts (FB). The data set can be described thus: Crystal violet (CV) cell viability assay. It counts as cell-based, human. As to conditions: 24 h exposure. On the procedure:
as §3, with “Cells were seeded into the 96-well cell culture plates in 100 μl of complete culture medium at the initial density of 2x10^4 (cells/ml). Cells were incubated under 5 % CO2 at 37 °C for 24 hours for adhering to the wells and medium was then replaced with 100 μl of fresh medium containing excipient solution at the required final concentration. Each concentration was tested in minimum of 5 replicates and control cells were exposed to the culture medium only. Fixed” for “Fixed”, “only). To assess the excipients' cytotoxicity, the dose-response effect of each excipient was measured against the cell lines. The cytotoxicity value for each concentration of the excipients was expressed as percentage of viability against the untreated control wells (the optical density of untreated cells was set at 100 % viability) to construct dose-response curves. […] All IC50 values were expressed as µg/ml. The percentage viability was calculated as follows: […]” for “only).”

The subject of data set [7] is primary skin fibroblasts (FB). The data set can be described thus: MTT cell viability assay. The format is cell-based, human. Conditions: 24 h exposure. On the procedure: as §1, §2, §4, §5
In data set [8] the test system is WM1366 human melanoma cells. The data set can be described thus: Crystal violet (CV) cell viability assay. The format is cell-based. As to conditions: 24 h exposure. On the procedure:
as §3, with “Cells were seeded into the 96-well cell culture plates in 100 μl of complete culture medium at the initial density of 2x10^4 (cells/ml). Cells were incubated under 5 % CO2 at 37 °C for 24 hours for adhering to the wells and medium was then replaced with 100 μl of fresh medium containing excipient solution at the required final concentration. Each concentration was tested in minimum of 5 replicates and control cells were exposed to the culture medium only. Fixed” for “Fixed”, “only). To assess the excipients' cytotoxicity, the dose-response effect of each excipient was measured against the cell lines. The cytotoxicity value for each concentration of the excipients was expressed as percentage of viability against the untreated control wells (the optical density of untreated cells was set at 100 % viability) to construct dose-response curves. […] All IC50 values were expressed as µg/ml. The percentage viability was calculated as follows: […]” for “only).”

The test system of data set [9] is WM164 human melanoma cells. The data set can be described thus: Crystal violet (CV) cell viability assay. It counts as cell-based. Conditions: 24 h exposure. On the procedure: as §3, with “Cells were seeded into the 96-well cell culture plates in 100 μl of complete culture medium at the initial density of 2x10^4 (cells/ml). Cells were incubated under 5 % CO2 at 37 °C for 24 hours for adhering to the wells and medium was then replaced with 100 μl of fresh medium containing excipient solution at the required final concentration. Each concentration was tested in minimum of 5 replicates and control cells were exposed to the culture medium only. Fixed” for “Fixed”, “only). To assess the excipients' cytotoxicity, the dose-response effect of each excipient was measured against the cell lines. The cytotoxicity value for each concentration of the excipients was expressed as percentage of viability against the untreated control wells (the optical density of untreated cells was set at 100 % viability) to construct dose-response curves. […] All IC50 values were expressed as µg/ml. The percentage viability was calculated as follows: […]” for “only).”

The test system of data set [10] is D24 human melanoma cells. The data set can be described thus: Crystal violet (CV) cell viability assay. It counts as cell-based. Conditions: 24 h exposure. On the procedure: as §3, with “Cells were seeded into the 96-well cell culture plates in 100 μl of complete culture medium at the initial density of 2x10^4 (cells/ml). Cells were incubated under 5 % CO2 at 37 °C for 24 hours for adhering to the wells and medium was then replaced with 100 μl of fresh medium containing excipient solution at the required final concentration. Each concentration was tested in minimum of 5 replicates and control cells were exposed to the culture medium only. Fixed” for “Fixed”, “only). To assess the excipients' cytotoxicity, the dose-response effect of each excipient was measured against the cell lines. The cytotoxicity value for each concentration of the excipients was expressed as percentage of viability against the untreated control wells (the optical density of untreated cells was set at 100 % viability) to construct dose-response curves. […] All IC50 values were expressed as µg/ml. The percentage viability was calculated as follows: […]” for “only).”

Data set [11] deals with HaCaT human keratinocytes. Put plainly: Crystal violet (CV) cell viability assay. It counts as cell-based. Conditions: 24 h exposure. On the procedure:
as §3, with “Cells were seeded into the 96-well cell culture plates in 100 μl of complete culture medium at the initial density of 2x10^4 (cells/ml). Cells were incubated under 5 % CO2 at 37 °C for 24 hours for adhering to the wells and medium was then replaced with 100 μl of fresh medium containing excipient solution at the required final concentration. Each concentration was tested in minimum of 5 replicates and control cells were exposed to the culture medium only. Fixed” for “Fixed”, “only). To assess the excipients' cytotoxicity, the dose-response effect of each excipient was measured against the cell lines. The cytotoxicity value for each concentration of the excipients was expressed as percentage of viability against the untreated control wells (the optical density of untreated cells was set at 100 % viability) to construct dose-response curves. […] All IC50 values were expressed as µg/ml. The percentage viability was calculated as follows: […]” for “only).”

In data set [12] the test system is human leukemic cells (CCRF). Also on record: method as in Duncan et al., 1994[25]. Conditions: ref Duncan et al., 1994[25]; cited from earlier work.
The conditions of data set [13]: Table 1, physicochemical information of the excipients, source not given; cited from earlier work.

“Also recorded” adds a separate entry of the source.

Consider “Propylene glycol dicaprylocaprate [Labrafac®]”, for which the “Cytotoxicity (result in words)” value in [1] (all cell lines, at the applied concentrations, 24 h) is “non-toxic; also recorded: did not induce any reduction in cell viability; also recorded: caused no toxicity to any cell lines; also recorded: No damaging effects on cell growth”. The same substance registered an Irritancy ranking in data set [1] of 5. Moreover, the “IC50 (μg/ml) [Mean, Range] WM1366, MTT” value in data set [2] was “> Max Conc”. For the same substance, in [3], the “IC50 (μg/ml) [Mean, Range] WM164, MTT” value was “> Max Conc”. Also, the “IC50 (μg/ml) [Mean, Range] D24, MTT” value in data set [4] is recorded as “> Max Conc”. In data set [5], the “IC50 (μg/ml) [Mean, Range] HaCaT, MTT” value is recorded as “> Max Conc”. In addition, in data set [6], the “IC50 (μg/ml) [Mean, Range] FB, CV” value is on record as “> Max Conc”. In data set [7], the “IC50 (μg/ml) [Mean, Range] FB, MTT” value is recorded as “> Max Conc”. Besides, the “IC50 (μg/ml) [Mean, Range] WM1366, CV” value in data set [8] was “> Max Conc”. Further, in data set [9], the “IC50 (μg/ml) [Mean, Range] WM164, CV” value is given as “> Max Conc”. For the same substance, the “IC50 (μg/ml) [Mean, Range] D24, CV” value in data set [10] is reported as “> Max Conc”. For the same substance, the “IC50 (μg/ml) [Mean, Range] HaCaT, CV” value in data set [11] is on record as “> Max Conc”.

The IC50 is the concentration that gives 50% inhibition. A lower IC50 goes with higher potency. Triton X-100 [reference compound]: the “Concentration causing significant inhibition of cell growth” value in data set [1] (all cell lines) stood at 0.004 µg/mL. Further, the “IC50” value in data set [1] (over the tested cell lines, this study) is below 0.08 µg/mL. For the same substance, the Irritancy ranking in data set [1] amounted to 1. The “IC50 (μg/ml) [Mean, Range] WM1366, MTT” value in data set [2] stood at 0.083 µg/mL. The “IC50 (μg/ml) [Mean, Range] WM164, MTT” value in [3] was 0.0042 (0.002 to 0.01) μg/ml. For the same substance, the “IC50 (μg/ml) [Mean, Range] D24, MTT” value in data set [4] is reported as 0.0429 (0.04 to 0.05) μg/ml. Also, in [5], the “IC50 (μg/ml) [Mean, Range] HaCaT, MTT” value is given as 0.0417 (0.04 to 0.043) μg/ml. Besides, the “IC50 (μg/ml) [Mean, Range] FB, CV” value in [6] is listed as 0.094 (0.08 to 0.13) μg/ml. Besides, the “IC50, MTT assay” value in data set [12] is 1 µg/mL. In addition, in data set [7], the “IC50 (μg/ml) [Mean, Range] FB, MTT” value was 0.1034 (0.08 to 0.16) μg/ml. Further, the HLB in [13] is recorded as 13.5. Further, the “IC50 (μg/ml) [Mean, Range] WM1366, CV” value in data set [8] is 0.089 µg/mL. Also, the “IC50 (μg/ml) [Mean, Range] WM164, CV” value in data set [9] was found to be 0.0265 µg/mL. The “IC50 (μg/ml) [Mean, Range] D24, CV” value in [10] is listed as 0.043 (0.04 to 0.045) μg/ml. In data set [11], the “IC50 (μg/ml) [Mean, Range] HaCaT, CV” value is 0.044 (0.042 to 0.047) μg/ml.

Values taken from PMC10776879, “In vitro screening of topical formulation excipients for epithelial toxicity in cancerous and non-cancerous cell lines” (EXCLI Journal, 2023).
